Literature values in patent US20040197429A1, “Selective COX-2 inhibition from plant extracts” (Pharmacia Corporation, priority 2000, published 2004).

System: COX-1 and COX-2
Conditions: background

CC(=O)Oc1ccccc1C(=O)O [aspirin]
effectiveness inactivating COX-1 as opposed to COX-2: 10 to 100 times
